The source of these data is ChEMBL document CHEMBL3822396 (J Med Chem, 2016).

Activity calls are given as the source filed them. The calls are words filed in the database; no cut-off is given here.

The nature of series [1]: Volume of distribution at steady state in C57BL/6 mouse at 2 mg/kg, po or 1 mg/kg, iv by LC-MS/MS analysis. In kind it is ADME, organism-based. The conditions noted are these: in vivo, read-out: Vdss.
A short description of series [2]: Half life in C57BL/6 mouse at 2 mg/kg, po or 1 mg/kg, iv by LC-MS/MS analysis. To be noted: in vivo. It counts as ADME, organism-based.
Series [3] relates to Mus musculus. Briefly: Antiinflammatory activity in C57Bl/6 mouse assessed as inhibition of FK156-induced serum KC level at 0.1 to 100 mg/kg, po for 15 mins prior to FK156-challenge measured after 2.5 hrs by FACS analysis. It counts as functional, organism-based.
Series [4] has as its system Intestinal mucosa. Description: Inhibition of TNFalpha production in intestinal mucosa derived from ulcerative colitis patient measured after 24 hrs by sandwich ELISA. It counts as functional, tissue-based. To be noted: Homo sapiens. For orientation: ELISA stands for enzyme-linked immunosorbent assay.
In series [5] the test system is Intestinal mucosa. Briefly: Inhibition of IL6 production in intestinal mucosa derived from ulcerative colitis patient measured after 24 hrs by sandwich ELISA. In kind it is functional, tissue-based. The conditions noted are these: Homo sapiens.
The subject of series [6] is Mus musculus. Description: Antiinflammatory activity in Balb/c mouse model of L18-MDP-induced inflammatory peritonitis assessed as inhibition of serum KC level into peritoneal cavity administered orally for 15 mins prior to L18-MDP-challenge measured after 4 hrs. It counts as functional, organism-based.
The target of series [7] is Protein-tyrosine kinase 6 (Homo sapiens) (UniProt Q13882). Description: Inhibition of human full length N-terminal GST-tagged BRK expressed in baculovirus expression system at 1 uM.
Chain of Protein-tyrosine kinase 6 (Homo sapiens) (Q13882 whole entry, looked up): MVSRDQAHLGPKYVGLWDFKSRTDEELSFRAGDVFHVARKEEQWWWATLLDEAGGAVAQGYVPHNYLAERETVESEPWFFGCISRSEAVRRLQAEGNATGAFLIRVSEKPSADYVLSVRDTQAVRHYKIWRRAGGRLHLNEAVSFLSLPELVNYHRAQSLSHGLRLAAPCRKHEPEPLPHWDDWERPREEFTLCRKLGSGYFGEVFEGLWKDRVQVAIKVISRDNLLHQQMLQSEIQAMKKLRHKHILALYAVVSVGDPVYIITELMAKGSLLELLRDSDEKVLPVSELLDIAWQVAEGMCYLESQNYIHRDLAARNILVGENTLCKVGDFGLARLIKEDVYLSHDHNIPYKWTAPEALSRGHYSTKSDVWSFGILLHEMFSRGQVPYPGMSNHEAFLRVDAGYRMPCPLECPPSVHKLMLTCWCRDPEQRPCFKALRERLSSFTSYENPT
The target in series [8] is T1, Aurora kinase A (Homo sapiens) (UniProt O14965).
T1 sequence (whole entry): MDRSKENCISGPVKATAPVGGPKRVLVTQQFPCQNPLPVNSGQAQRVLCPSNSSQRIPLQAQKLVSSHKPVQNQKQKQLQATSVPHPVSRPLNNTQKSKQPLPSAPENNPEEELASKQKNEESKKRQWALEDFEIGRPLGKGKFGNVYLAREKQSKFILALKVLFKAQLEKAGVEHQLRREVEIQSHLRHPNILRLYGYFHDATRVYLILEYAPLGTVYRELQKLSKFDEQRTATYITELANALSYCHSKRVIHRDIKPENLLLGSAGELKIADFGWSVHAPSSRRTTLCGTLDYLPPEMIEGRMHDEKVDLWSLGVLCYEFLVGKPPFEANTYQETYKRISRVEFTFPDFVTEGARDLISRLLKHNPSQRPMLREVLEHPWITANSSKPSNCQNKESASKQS
Description: Inhibition of human full length N-terminal GST-tagged aurora-a expressed in baculovirus expression system at 1 uM.

The target in series [9] is T2, Receptor-interacting serine/threonine-protein kinase 3 (Homo sapiens, UniProt Q9Y572). Description: Inhibition of RIPK3 (unknown origin) preincubated for 10 mins followed by addition of fluorescent-labeled 2-Methyl-5-(2-propen-l-yloxy)aniline measured after 10 mins by fluorescence polarization assay. Background: Polarisation of emitted light reports the rotation of a fluorescent probe.
Target sequence in this assay (Q9Y572 whole entry): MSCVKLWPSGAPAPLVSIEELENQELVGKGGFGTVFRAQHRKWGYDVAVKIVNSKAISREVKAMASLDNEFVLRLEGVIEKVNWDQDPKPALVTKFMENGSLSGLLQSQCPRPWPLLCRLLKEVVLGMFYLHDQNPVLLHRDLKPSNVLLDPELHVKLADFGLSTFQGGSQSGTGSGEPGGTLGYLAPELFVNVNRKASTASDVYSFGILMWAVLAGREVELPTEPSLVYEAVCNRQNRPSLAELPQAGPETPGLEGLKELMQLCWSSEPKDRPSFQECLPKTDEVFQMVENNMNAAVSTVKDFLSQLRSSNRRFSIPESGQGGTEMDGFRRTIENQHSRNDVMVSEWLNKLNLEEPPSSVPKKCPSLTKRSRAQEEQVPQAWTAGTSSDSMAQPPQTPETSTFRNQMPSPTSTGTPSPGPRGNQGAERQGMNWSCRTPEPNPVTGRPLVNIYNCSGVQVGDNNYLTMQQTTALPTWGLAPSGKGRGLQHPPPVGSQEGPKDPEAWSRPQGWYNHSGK

For series [10], the target named is T2, Receptor-interacting serine/threonine-protein kinase 3. Briefly: Inhibition of RIPK3 (unknown origin) in HEK-293 cells assessed as necroptic cell death at 10 uM by cell-based assay. To be noted: HEK293.
Target sequence in this assay (Q9Y572 whole entry, looked up): as the sequence (Q9Y572 whole entry) above
The target in series [11] is Toll-like receptor 2 (Homo sapiens) (UniProt O60603). Briefly: Activation of TLR2 receptor in human monocytes assessed as inhibition of Pam2Csk4-stimulated TNF-alpha production preincubated for 30 mins prior to Pam2Csk4 stimulation at 1 uM measured after 6 hrs by immunoassay. In kind it is cell-based.
Chain of Toll-like receptor 2 (Homo sapiens) (O60603 whole entry): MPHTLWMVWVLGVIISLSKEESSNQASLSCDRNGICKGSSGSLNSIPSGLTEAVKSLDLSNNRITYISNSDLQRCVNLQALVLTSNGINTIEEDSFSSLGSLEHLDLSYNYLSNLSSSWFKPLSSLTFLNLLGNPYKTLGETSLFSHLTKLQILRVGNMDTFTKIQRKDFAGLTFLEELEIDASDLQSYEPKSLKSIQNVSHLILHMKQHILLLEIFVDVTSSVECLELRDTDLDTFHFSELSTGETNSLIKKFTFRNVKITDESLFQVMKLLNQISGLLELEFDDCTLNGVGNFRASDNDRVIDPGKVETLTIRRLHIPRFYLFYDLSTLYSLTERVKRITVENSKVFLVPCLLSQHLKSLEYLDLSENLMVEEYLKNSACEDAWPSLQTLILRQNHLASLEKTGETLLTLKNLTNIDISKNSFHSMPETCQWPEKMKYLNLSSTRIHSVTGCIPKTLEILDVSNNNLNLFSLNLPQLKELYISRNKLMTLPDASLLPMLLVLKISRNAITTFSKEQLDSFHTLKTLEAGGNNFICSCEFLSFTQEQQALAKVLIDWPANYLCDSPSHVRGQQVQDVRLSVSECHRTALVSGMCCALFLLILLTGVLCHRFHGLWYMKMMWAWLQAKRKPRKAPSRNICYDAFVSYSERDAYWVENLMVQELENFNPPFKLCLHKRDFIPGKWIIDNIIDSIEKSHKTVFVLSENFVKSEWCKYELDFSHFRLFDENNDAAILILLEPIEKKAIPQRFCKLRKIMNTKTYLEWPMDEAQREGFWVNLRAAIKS
The target in series [12] is Toll-like receptor 4 (Homo sapiens) (UniProt O00206). Briefly: Activation of TLR4 receptor in human monocytes assessed as inhibition of LPS-stimulated TNF-alpha production preincubated for 30 mins prior to LPS stimulation at 1 uM measured after 6 hrs by immunoassay. In kind it is cell-based.
Chain of Toll-like receptor 4 (Homo sapiens) (O00206 whole entry): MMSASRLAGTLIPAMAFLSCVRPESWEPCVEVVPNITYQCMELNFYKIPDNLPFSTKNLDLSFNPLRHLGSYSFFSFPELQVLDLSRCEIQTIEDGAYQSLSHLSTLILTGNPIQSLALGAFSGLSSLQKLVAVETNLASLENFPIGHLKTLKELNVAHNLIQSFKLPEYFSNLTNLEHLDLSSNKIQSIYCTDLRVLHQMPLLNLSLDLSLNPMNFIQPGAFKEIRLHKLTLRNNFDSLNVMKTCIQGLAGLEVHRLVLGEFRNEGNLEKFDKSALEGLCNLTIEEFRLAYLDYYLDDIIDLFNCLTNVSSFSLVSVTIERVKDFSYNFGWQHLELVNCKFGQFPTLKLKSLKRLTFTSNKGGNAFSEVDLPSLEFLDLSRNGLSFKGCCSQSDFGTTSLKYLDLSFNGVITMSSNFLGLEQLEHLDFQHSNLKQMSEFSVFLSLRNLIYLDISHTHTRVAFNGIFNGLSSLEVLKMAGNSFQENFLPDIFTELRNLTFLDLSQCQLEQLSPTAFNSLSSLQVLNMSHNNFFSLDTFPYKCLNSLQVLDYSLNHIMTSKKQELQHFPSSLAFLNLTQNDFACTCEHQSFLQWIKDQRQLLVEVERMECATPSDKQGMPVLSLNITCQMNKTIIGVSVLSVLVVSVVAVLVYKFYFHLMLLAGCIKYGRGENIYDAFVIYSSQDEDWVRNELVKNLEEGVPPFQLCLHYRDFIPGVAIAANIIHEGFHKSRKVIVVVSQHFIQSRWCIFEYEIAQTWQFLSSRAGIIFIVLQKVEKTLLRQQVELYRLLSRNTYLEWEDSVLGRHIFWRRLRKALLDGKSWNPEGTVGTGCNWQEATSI
For series [13], the target named is T3, Toll-like receptor 7 (Homo sapiens) (UniProt Q9NYK1).
T3 sequence (whole entry): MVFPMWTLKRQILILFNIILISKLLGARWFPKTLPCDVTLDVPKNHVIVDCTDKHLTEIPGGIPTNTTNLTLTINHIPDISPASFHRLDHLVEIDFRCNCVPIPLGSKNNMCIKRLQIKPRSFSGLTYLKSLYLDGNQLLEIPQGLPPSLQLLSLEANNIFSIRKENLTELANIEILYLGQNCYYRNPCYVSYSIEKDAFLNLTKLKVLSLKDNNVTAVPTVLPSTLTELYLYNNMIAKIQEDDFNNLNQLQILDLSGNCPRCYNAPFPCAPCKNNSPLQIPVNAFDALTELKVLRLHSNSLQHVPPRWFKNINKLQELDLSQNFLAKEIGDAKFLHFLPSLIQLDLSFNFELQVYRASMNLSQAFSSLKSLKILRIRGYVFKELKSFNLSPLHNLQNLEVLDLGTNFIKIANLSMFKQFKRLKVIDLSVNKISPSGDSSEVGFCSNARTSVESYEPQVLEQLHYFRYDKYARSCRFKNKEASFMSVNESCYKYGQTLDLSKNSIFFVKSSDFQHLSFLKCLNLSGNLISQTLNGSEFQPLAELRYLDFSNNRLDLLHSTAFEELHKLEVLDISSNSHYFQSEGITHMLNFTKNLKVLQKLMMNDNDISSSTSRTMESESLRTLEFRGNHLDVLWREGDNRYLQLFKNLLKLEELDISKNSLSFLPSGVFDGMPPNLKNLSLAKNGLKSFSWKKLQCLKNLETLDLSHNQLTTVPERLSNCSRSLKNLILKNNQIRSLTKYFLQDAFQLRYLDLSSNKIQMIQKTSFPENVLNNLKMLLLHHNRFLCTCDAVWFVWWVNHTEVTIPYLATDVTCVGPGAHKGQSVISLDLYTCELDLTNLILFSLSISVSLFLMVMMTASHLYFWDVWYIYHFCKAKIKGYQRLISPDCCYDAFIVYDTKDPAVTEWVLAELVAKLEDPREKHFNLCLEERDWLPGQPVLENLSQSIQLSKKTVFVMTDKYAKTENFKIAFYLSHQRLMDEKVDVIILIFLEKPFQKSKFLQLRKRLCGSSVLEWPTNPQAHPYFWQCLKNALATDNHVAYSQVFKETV
Briefly: Activation of TLR7 receptor in human monocytes assessed as inhibition of gardiquimod-stimulated IL8 production preincubated for 30 mins prior to gardiquimod stimulation at 1 uM measured after 6 hrs by immunoassay. It counts as cell-based.

Series [14] is described as follows: Clearance in Sprague-Dawley rat at 2 mg/kg, po or 1 mg/kg, iv by LC-MS/MS analysis. It counts as ADME, organism-based. The conditions noted are these: in vivo.
The nature of series [15]: Volume of distribution at steady state in Sprague-Dawley rat at 2 mg/kg, po or 1 mg/kg, iv by LC-MS/MS analysis. In kind it is ADME, organism-based. The conditions noted are these: in vivo, read-out: Vdss.
Series [16] is described as follows: Half life in Sprague-Dawley rat at 2 mg/kg, po and 1 mg/kg, iv by LC-MS/MS analysis. In kind it is ADME, organism-based. The conditions noted are these: in vivo.
A short description of series [17]: Fraction unbound in Sprague-Dawley rat blood at 2 mg/kg, po or 1 mg/kg, iv. In kind it is ADME, organism-based. The conditions noted are these: whole blood.
Series [18] in a line: Cmax in C57BL/6 mouse at 2 mg/kg, po by LC-MS/MS analysis. The arrangement: dose 2 mg/kg, route oral. In kind it is ADME, organism-based. To be noted: in vivo.
Series [19] is described as follows: AUC in C57BL/6 mouse at 2 mg/kg, po by LC-MS/MS analysis. In kind it is ADME, organism-based. The conditions noted are these: in vivo.
The target in series [20] is Mitogen-activated protein kinase 14 (Homo sapiens, UniProt Q16539).
Chain of Mitogen-activated protein kinase 14 (Q16539 whole entry): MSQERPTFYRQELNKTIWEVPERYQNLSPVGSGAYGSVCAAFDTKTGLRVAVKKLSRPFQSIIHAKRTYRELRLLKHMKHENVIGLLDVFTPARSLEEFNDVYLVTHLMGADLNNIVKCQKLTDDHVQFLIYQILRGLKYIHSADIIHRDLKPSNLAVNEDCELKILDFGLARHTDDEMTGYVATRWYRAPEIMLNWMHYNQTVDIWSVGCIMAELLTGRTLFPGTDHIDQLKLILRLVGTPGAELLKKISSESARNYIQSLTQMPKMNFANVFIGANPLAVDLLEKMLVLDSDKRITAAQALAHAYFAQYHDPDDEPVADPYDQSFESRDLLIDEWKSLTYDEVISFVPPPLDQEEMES
Series [21] concerns the target Vascular endothelial growth factor receptor 2 (Homo sapiens, UniProt P35968).

Chain of Vascular endothelial growth factor receptor 2 (P35968 whole entry): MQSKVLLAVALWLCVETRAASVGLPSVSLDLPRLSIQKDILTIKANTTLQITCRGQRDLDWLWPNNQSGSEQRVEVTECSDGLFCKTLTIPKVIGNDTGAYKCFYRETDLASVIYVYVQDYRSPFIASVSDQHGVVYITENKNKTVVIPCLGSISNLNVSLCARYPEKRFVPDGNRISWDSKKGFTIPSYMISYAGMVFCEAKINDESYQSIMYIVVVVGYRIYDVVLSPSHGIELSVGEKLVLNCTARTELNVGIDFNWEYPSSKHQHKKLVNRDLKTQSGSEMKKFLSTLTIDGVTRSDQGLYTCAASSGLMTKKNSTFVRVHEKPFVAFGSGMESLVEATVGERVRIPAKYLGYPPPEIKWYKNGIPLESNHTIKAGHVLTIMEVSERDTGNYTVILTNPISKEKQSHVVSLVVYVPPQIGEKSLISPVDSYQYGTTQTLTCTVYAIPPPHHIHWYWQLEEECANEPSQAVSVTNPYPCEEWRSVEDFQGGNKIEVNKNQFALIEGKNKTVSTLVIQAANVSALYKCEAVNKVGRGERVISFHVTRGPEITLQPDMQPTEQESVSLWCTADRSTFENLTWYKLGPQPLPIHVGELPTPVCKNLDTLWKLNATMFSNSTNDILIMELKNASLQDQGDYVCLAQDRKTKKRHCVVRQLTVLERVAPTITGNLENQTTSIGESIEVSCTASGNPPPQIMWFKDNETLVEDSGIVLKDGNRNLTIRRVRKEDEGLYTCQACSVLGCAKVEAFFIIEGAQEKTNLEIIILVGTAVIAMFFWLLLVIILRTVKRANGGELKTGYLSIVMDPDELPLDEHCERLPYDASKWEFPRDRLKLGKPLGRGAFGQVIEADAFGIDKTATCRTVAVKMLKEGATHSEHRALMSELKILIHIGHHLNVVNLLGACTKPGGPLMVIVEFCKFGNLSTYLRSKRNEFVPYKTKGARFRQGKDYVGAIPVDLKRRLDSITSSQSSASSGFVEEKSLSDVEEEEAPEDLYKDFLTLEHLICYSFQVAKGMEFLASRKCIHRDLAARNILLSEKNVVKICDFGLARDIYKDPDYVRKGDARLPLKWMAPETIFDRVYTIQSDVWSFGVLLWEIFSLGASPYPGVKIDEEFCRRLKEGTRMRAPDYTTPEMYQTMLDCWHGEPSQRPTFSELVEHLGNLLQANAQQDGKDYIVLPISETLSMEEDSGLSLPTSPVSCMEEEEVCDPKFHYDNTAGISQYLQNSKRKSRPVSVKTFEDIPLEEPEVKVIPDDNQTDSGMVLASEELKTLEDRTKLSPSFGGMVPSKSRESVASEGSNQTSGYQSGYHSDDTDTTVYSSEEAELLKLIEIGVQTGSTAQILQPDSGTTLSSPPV

For orientation: half-life means how long it takes for the measured level to halve. A high value points to slow decline. The inhibition is the percentage by which the read-out fell short of the control. As usually defined, the IC50 is the midpoint of a concentration-inhibition curve. Read a high IC50 as lower potency. The fraction unbound is free concentration divided by total concentration. A lower fraction unbound goes with extensive binding. A word on the Cmax: it is the maximum level reached in the sampled fluid or tissue. The term AUC denotes the area under the concentration-time curve, a measure of exposure. A low value points to low exposure. `CC(C)(C)S(=O)(=O)c1ccc2nccc(Nc3n[nH]c4ccc(F)cc34)c2c1`: the Vd amounted to 1.2 L/kg in [1] and 2 L/kg in series [15]. Also, the figures for the half-life in [2] and in series [16] were 2.1 h and 3.1 h, respectively. The inhibition entry in series [3], in series [11], in series [12] and in [13] was “Active” each time. Also, the inhibition entry in [4] was “Dose-dependent effect”; in series [5], “Dose-dependent effect”; in series [7], 30%; in series [8] it was 30%. The Activity result in series [6] was “Dose-dependent effect”. Moreover, the IC50 in series [9] is 0.016 µM; in [20], 5.12 µM; in [21], more than 5 µM. Moreover, the inhibition entry in [10] is “inactive”. Also, the clearance in series [14] was found to be 15 mL/min/kg. In series [17], this compound showed a fraction unbound of 0.026. In series [18], the Cmax worked out at 340 ng/mL. The same compound came in with an AUC in [19] of 860 ng·h/mL.
